Measured values as given in patent US20160100574A1, “Antimicrobial Compositions Comprising Glyceryl Ethers” (SYMRISE AG, priority 2013, published 2016).

Tests used:
Assay type in all cases: cell-based
Candida albicans = assay: Minimum inhibitory concentration according to DIN 58940, Candida albicans; conditions: Candida albicans, single antimicrobial agents
From the text: (§1) In order to calculate the Synergy Index SI with MIC values, the Kull equation is used as follows:
(§2) SI=(MICmixture×PA)/MICA+(MICmixture×PB)/MICB (II)
(§3) where SI is the Synergy Index according to Kull^1), 2) MICA is the MIC value for substance A MICB is the MIC value for substance B MICmixture is the MIC value for the mixture of substances A and B PA is the proportion of the substance A in the mixture PB is the proportion of the substance B in the mixture. b) Mixtures containing 3 components
(§4) SI=(MICmixture×PA)/MICA+(MICmixture×PB)/MICB+(MICmixture×PC)/MICC
(§5) where SI is the Synergy Index according to Kull^1), 2) MICA is the MIC value for substance A MICB is the MIC value for substance B MICC is the MIC value for substance C MICmixture is the MIC value for the mixture of substances […] PA is the proportion of the substance A in the mixture PB is the proportion of the substance B in the mixture. PC is the proportion of the substance C in the mixture.

A. brasiliensis = assay: Challenge test / synergy (Kull equation), A. brasiliensis; conditions: for colony counts Day 2: Day 2, 1% b.w. active in aqueous emulsion of Glyceryl stearyl citrate (Dracorin CE); for colony counts Day 14: Day 14, 1% b.w. active in aqueous emulsion of Glyceryl stearyl citrate (Dracorin CE); for colony counts Day 28: Day 28, 1% b.w. active in aqueous emulsion of Glyceryl stearyl citrate (Dracorin CE)
Procedure: (§6) 1% b.w. of heptylglycerin, benzylglycerin and phenylpropylglycerin, respectively was added to an aqueous emulsion of Glyceryl stearyl citrate (Dracorin CE). The formulations were tested in standard challenge tests against various micro-organisms.
To calculate the synergism between compounds of formula (I) and other antimicrobial actives, the Kull equation^1 2 was used
SI=(Cmixture×PA)/CA+(Cmixture×PB)/CB (I)
where SI is the Synergy Index according to Kull^1), 2) CA is the cell count for substance A CB is the cell count for substance B Cmixture is the cell count for the mixture of substances A and B PA is the proportion of the substance A in the mixture PB is the proportion of the substance B in the mixture. ^1 Kull, F. C., Eismann, P. C., Sylvestrowicz, H. D., and R. L. Mayer (1961). Mixtures of Quaternary Ammonium Compounds and Long-chain Fatty Acids as Antifungal Agents. Applied Microbiology 9, 538-541.^2 Steinberg, D.C. (2000). Measuring Synergy. Cosmetics & Toiletries 115 (11), 59-62.
Colony counts of <100 were arbitrarily set to 100, in order to allow for synergy calculations with the above equation. The abbreviation “n.a.” means not applicable.

E. coli = assay: Challenge test of preserved emulsion, E. coli; conditions: for colony counts Day 2: Day 2, 1% b.w. active in aqueous emulsion of Glyceryl stearyl citrate (Dracorin CE); for colony counts Day 7: Day 7, 1% b.w. active in aqueous emulsion of Glyceryl stearyl citrate (Dracorin CE); for colony counts Day 14: Day 14, 1% b.w. active in aqueous emulsion of Glyceryl stearyl citrate (Dracorin CE); for colony counts Day 28: Day 28, 1% b.w. active in aqueous emulsion of Glyceryl stearyl citrate (Dracorin CE)
Procedure: as §6, with “micro-organisms. The results are shown in Table 1 and indicate the high activity of the actives against yeast and bacteria, but not against mould.” for “micro-organisms.”

Staphylococcus aureus = assay: Minimum inhibitory concentration according to DIN 58940, Staphylococcus aureus; conditions: Staphylococcus aureus, single antimicrobial agents
From the text: as §1, §2, §3, §4, §5

P. aeruginosa = assay: Challenge test of preserved emulsion, P. aeruginosa; conditions: for colony counts Day 2: Day 2, 1% b.w. active in aqueous emulsion of Glyceryl stearyl citrate (Dracorin CE); for colony counts Day 7: Day 7, 1% b.w. active in aqueous emulsion of Glyceryl stearyl citrate (Dracorin CE); for colony counts Day 14: Day 14, 1% b.w. active in aqueous emulsion of Glyceryl stearyl citrate (Dracorin CE); for colony counts Day 28: Day 28, 1% b.w. active in aqueous emulsion of Glyceryl stearyl citrate (Dracorin CE)
Procedure: as §6, with “micro-organisms. The results are shown in Table 1 and indicate the high activity of the actives against yeast and bacteria, but not against mould.” for “micro-organisms.”

C. albicans = assay: Challenge test of preserved emulsion, C. albicans; conditions: for colony counts Day 7: Day 7, 1% b.w. active in aqueous emulsion of Glyceryl stearyl citrate (Dracorin CE); for colony counts Day 14: Day 14, 1% b.w. active in aqueous emulsion of Glyceryl stearyl citrate (Dracorin CE); for colony counts Day 28: Day 28, 1% b.w. active in aqueous emulsion of Glyceryl stearyl citrate (Dracorin CE)
Procedure: as §6, with “micro-organisms. The results are shown in Table 1 and indicate the high activity of the actives against yeast and bacteria, but not against mould.” for “micro-organisms.”

S. aureus = assay: Challenge test of preserved emulsion, S. aureus; conditions: for colony counts Day 2: Day 2, 1% b.w. active in aqueous emulsion of Glyceryl stearyl citrate (Dracorin CE); for colony counts Day 7: Day 7, 1% b.w. active in aqueous emulsion of Glyceryl stearyl citrate (Dracorin CE); for colony counts Day 14: Day 14, 1% b.w. active in aqueous emulsion of Glyceryl stearyl citrate (Dracorin CE); for colony counts Day 28: Day 28, 1% b.w. active in aqueous emulsion of Glyceryl stearyl citrate (Dracorin CE)
Procedure: as §6, with “micro-organisms. The results are shown in Table 1 and indicate the high activity of the actives against yeast and bacteria, but not against mould.” for “micro-organisms.”

Aspergillus brasiliensis = assay: Minimum inhibitory concentration according to DIN 58940, Aspergillus brasiliensis; conditions: Aspergillus brasiliensis, single antimicrobial agents
From the text: as §1, §2, §3, §4, §5

Pseudomonas aeruginosa = assay: Minimum inhibitory concentration according to DIN 58940, Pseudomonas aeruginosa; conditions: Pseudomonas aeruginosa, single antimicrobial agents
From the text: as §1, §2, §3, §4, §5

Escherichia coli = assay: Minimum inhibitory concentration according to DIN 58940, Escherichia coli; conditions: Escherichia coli, single antimicrobial agents, read-out: MIC values E. coli
From the text: as §1, §2, §3, §4, §5

[1] = Day 0, 1% b.w. active in aqueous emulsion of Glyceryl stearyl citrate (Dracorin CE)

| MIC (Candida albicans) | MIC (Staphylococcus aureus) | MIC (Aspergillus brasiliensis) | MIC (Pseudomonas aeruginosa) | MIC (Escherichia coli) | Structure (SMILES) | colony counts Day 2 (A. brasiliensis) | colony counts Day 14 (A. brasiliensis) | colony counts Day 28 (A. brasiliensis) | colony counts Day 2 (E. coli) | colony counts Day 7 (E. coli) | colony counts Day 14 (E. coli) | colony counts Day 28 (E. coli) | colony counts Day 2 (P. aeruginosa) | colony counts Day 7 (P. aeruginosa) | colony counts Day 14 (P. aeruginosa) | colony counts Day 28 (P. aeruginosa) | colony counts Day 7 (C. albicans) | colony counts Day 14 (C. albicans) | colony counts Day 28 (C. albicans) | colony counts Day 2 (S. aureus) | further results |
| --- | --- | --- | --- | --- | --- | --- | --- | --- | --- | --- | --- | --- | --- | --- | --- | --- | --- | --- | --- | --- | --- |
| 2000 µg/mL | 2500 µg/mL | 1000 µg/mL | 5000 µg/mL | 2000 µg/mL | CCCCCCCOCC(O)CO (stereo not drawn) [Heptylglycerin] | 320.000 cfu/g formulation | 300.000 cfu/g formulation | 170.000 cfu/g formulation | 0 cfu/g formulation | 0 cfu/g formulation | 0 cfu/g formulation | 0 cfu/g formulation | 0 cfu/g formulation | 0 cfu/g formulation | 0 cfu/g formulation | 0 cfu/g formulation | 0 cfu/g formulation | 0 cfu/g formulation | 0 cfu/g formulation | 0 cfu/g formulation | colony counts Day 0 (A. brasiliensis; [1]): 220.000 cfu/g formulation; Colony counts day 0 (A. brasiliensis; Table 3, day 0, 1.0% total active): 220.000 cfu/g formulation; Relative colony counts day 0 (A. brasiliensis; Table 3, day 0, relative to day 0, 1.0% total active): 1.0000; Colony counts day 2 (A. brasiliensis; Table 3, day 2, 1.0% total active): 320.000 cfu/g formulation; Relative colony counts day 2 (A. brasiliensis; Table 3, day 2, relative to day 0, 1.0% total active): 1.4545; Colony counts day 7 (A. brasiliensis; Table 3, day 7, 1.0% total active): 340.000 cfu/g formulation; Relative colony counts day 7 (A. brasiliensis; Table 3, day 7, relative to day 0, 1.0% total active): 1.5455; Colony counts day 14 (A. brasiliensis; Table 3, day 14, 1.0% total active): 300.000 cfu/g formulation; Relative colony counts day 14 (A. brasiliensis; Table 3, day 14, relative to day 0, 1.0% total active): 1.3636; Colony counts day 28 (A. brasiliensis; Table 3, day 28, 1.0% total active): 170.000 cfu/g formulation; Relative colony counts day 28 (A. brasiliensis; Table 3, day 28, relative to day 0, <100 set to 100, 1.0% total active): 0.7727; colony counts Day 0 (E. coli; [1]): 210.000 cfu/g formulation; colony counts Day 0 (P. aeruginosa; [1]): 250.000 cfu/g formulation; colony counts Day 2 (C. albicans; Day 2, 1% b.w. active in aqueous emulsion of Glyceryl stearyl citrate (Dracorin CE)): <100 cfu/g formulation; colony counts Day 0 (S. aureus; [1]): 230.000 cfu/g formulation; colony counts Day 7 (S. aureus): 0 cfu/g formulation; colony counts Day 14 (S. aureus): 0 cfu/g formulation; colony counts Day 28 (S. aureus): 0 cfu/g formulation |
| 6000 µg/mL | 6000 µg/mL | 4000 µg/mL | 6000 µg/mL | 4000 µg/mL | CCCCCCOCC(O)CO (stereo not drawn) [Hexylglycerin] |  |  |  |  |  |  |  |  |  |  |  |  |  |  |  |  |
| 1000 µg/mL | 1000 µg/mL | 500 µg/mL | > 2000 µg/mL | 1000 µg/mL | CCCCCCCCOCC(O)CO (stereo not drawn) [Octylglycerin] |  |  |  |  |  |  |  |  |  |  |  |  |  |  |  |  |
|  |  |  |  |  | OCC(O)COCCCc1ccccc1 (stereo not drawn) [Phenylpropylglycerin] | 500.000 cfu/g formulation | 20.000 cfu/g formulation | 5.900 cfu/g formulation | <10 cfu/g formulation | <10 cfu/g formulation | <10 cfu/g formulation | <10 cfu/g formulation | <10 cfu/g formulation | <10 cfu/g formulation | <10 cfu/g formulation | <10 cfu/g formulation | <10 cfu/g formulation | <10 cfu/g formulation | <10 cfu/g formulation | <10 cfu/g formulation | colony counts Day 7 (S. aureus): <10 cfu/g formulation; colony counts Day 14 (S. aureus): <10 cfu/g formulation; colony counts Day 28 (S. aureus): <10 cfu/g formulation |
